Key:
[1] = system: neutrophil accumulation in BAL fluid; assay: LPS-induced acute lung injury model, BAL fluid; format: in vivo; conditions: for reduction in the accumulation of neutrophils in BAL fluid: one hour prior to LPS challenge
Method: Lewis rats to be treated with an inhibitor in accordance with the invention or vehicle control (PEG400) were first challenged with LPS [Asti et al., Pulm. Pharmacol Ther., 13:61-69 (2000)]. Briefly, the trachea was exposed by standard surgical procedures and 100 μl saline solution or saline containing LPS (Escherichia Coli Serotype 0111:B4, Sigma) was instilled. Six hours following the challenge, rats were euthanized and the bronchoalveolar lavage (BAL) fluid was collected for cell differentials. Total white blood cell (WBC) and neutrophil counts were determined (Hemavet™ 850 FS cell counter). Cell populations were identified by morphological examination of smears prepared by cytocentrifugation.
Animals received a single oral dose of either a compound in accordance with the invention (25 mg/kg for mice and 20 or 40 mg/kg for rats) or vehicle (PEG-400). Blood samples were subsequently drawn at indicated time points and plasma concentration of the compound determined after liquid-liquid extraction by LC/MS. The lower quantification limit was 50 ng/ml. Plasma samples from control animals (vehicle alone) were used as the blank control.

[2] = system: Akt phosphorylation in HUVECs; assay: Akt phosphorylation in TNFα-stimulated HUVECs (Western blot); format: cell-based, human; conditions: 2 μM
[3] = system: neutrophils on TNFα-inflamed venular endothelium of the cremaster muscle; assay: Intravital microscopy of TNFα-inflamed cremaster muscle venules, GFP+/− mice; format: in vivo
From the text: To determine if PI3Kδ contributes to leukocyte accumulation in inflamed tissues, the ability of leukocytes to interact with cytokine-stimulated endothelial cells in microvessels in the cremaster muscle of mice and to transmigrate was examined. Animals heterozygous for GFP expression under the murine lysozyme M locus control, which rendered neutrophils and other granulocytes visible by epifluorescence intravital microscopy, were used to quantitate leukocyte interactions with the vessel wall.
Mice in which green fluorescent protein (GFP) was knocked into the lysozyme M locus or the PI3Kδ catalytic subunit was deleted were generated as previously described [Faust et al., Blood, 96:719-726 (2000); and, Clayton et al., J. Exp. Med., 196:753-763 (2002)]. Subsequent matings were performed to yield mice that were heterozygous for GFP expression but deficient in PI3Kδ expression (mixed 129/Sv-C57BL/6 background) (GFP^+/−/PI3Kδ^−/− animals). All animals were handled in accordance with policies administered by institutional Animal Care and Use Committees.
The surgical preparation of animals for all in vivo studies was performed using standard techniques [see, e.g., Coxon, Immunity, 5:653-666 (1996)]. The cremaster muscle (CM) in GFP^+/− or GFP^+/−/PI3Kδ^−/− animals was inflamed with an intrascrotal injection of murine recombinant TNFα (20 ng/mouse). 2.5 hours after TNFα injection, the tissue was surgically exposed and positioned over a circular glass coverslip (25 mm) on a custom-built plexiglass stage for viewing. The stage was then placed on an intravital microscope (IV-500; Mikron instruments, San Diego, Calif.) equipped with a silicon-intensified camera (VE1000SIT; Dage mti, Michigan City, Ind.) and the tissue kept moist by superfusion with thermo-controled (37° C.) bicarbonate-buffered saline. GFP-expressing cells (predominantly neutrophils, also including fewer monocytes) were visualized through X20 or X40 water immersion objectives (Acroplan, Carl Zeiss Inc.) by epifluorescence from a Xenon arc stroboscope (Chadwick Helmuth, El Monte, Calif.) as they passed through the venous microcirculation of the cremaster muscle. Rolling fraction was defined as the percentage of cells that interact with a given venule in the total number of cells that enter that venule during the same time period. The sticking fraction was defined as the number of rolling cells that became stationary for >30 s post-superfusion of the CM with LTB4 (0.1 μM). Venular shear rates were determined from optical Doppler velocimeter measurements of centerline erythrocyte velocity. The extent of leukocyte transmigration was evaluated at 30 and 60 min after application of LTB4. Video images were recorded using a Hi8 VCR (Sony, Boston, Mass.), and analysis of performed using a PC-based image analysis system [Doggett et al., Biophys. J., 83:194-205 (2002)].
In order for leukocyte transmigration to occur, engagement of the leukocyte integrins with ICAMs expressed on venular endothelium (“firm adhesion”) is necessary for leukocytes to stably adhere to the vessel wall (in addition to the requirement for selectin-mediated tethering and rolling) [Dunne et al., Blood, 99:336-341 (2002)]. To determine the role of PI3Kδ in firm adhesion, the ability of leukocytes rolling on inflamed venular endothelium to undergo integrin-mediated firm adhesion in response to an activating stimulus was investigated in vivo.
These experiments were performed in accordance with the procedures described in Example 2.

CDK2/cyclinA = CDK2/cyclinA (Homo sapiens, UniProt P24941); assay: Protein kinase/phosphatase panel: CDK2/cyclinA; format: biochemical; conditions: inhibitor 10 μM; 100 μM ATP
p38 MAPK = p38 MAPK (Homo sapiens, UniProt Q16539); conditions: inhibitor 10 μM; reported by Sadhu et al.; cited from earlier work
PDK1 = assay: Activity of PDK1 immunoprecipitated from TNFα-stimulated HUVECs; format: cell-based, human; conditions: incubation of intact HUVECs with compound
From the text: Thus, PI3Kδ activity is required for PDK1 and Akt function in endothelium as previously described for neutrophils.

CHK1 = CHK1 (Homo sapiens, UniProt O14757); conditions: inhibitor 10 μM; reported by Sadhu et al.; cited from earlier work
ZAP-70 = ZAP-70 (Homo sapiens, UniProt P43403); assay: Protein kinase/phosphatase panel: ZAP-70; format: biochemical; conditions: inhibitor 10 μM; 100 μM ATP
[4] = target: CD45 tyrosine phosphatase (Homo sapiens, UniProt P08575); assay: Protein kinase/phosphatase panel: CD45 tyrosine phosphatase; format: biochemical; conditions: inhibitor 10 μM
[5] = Number of circulating neutrophils in treated mice; format: in vivo; conditions: inhibitor treated animals
From the text: The reduction in cell adhesion in these animals was not due to inhibitor-induced leukopenia as the number of circulating neutrophils was similar in both the control and experimental groups (2,857.3±803 and 2,730.7±1132.6 for control and inhibitor treated animals, respectively). The absolute number of circulating neutrophils in animals deficient in PI3Kδ was 2,997.7±776.1 (n=8).

PKC-θ = PKC-θ (Homo sapiens, UniProt Q04759); assay: Protein kinase/phosphatase panel: PKC-θ; format: biochemical; conditions: inhibitor 10 μM; 100 μM ATP
[6] = target: EGF receptor tyrosine kinase (Homo sapiens, UniProt P00533); assay: Protein kinase/phosphatase panel: EGF receptor tyrosine kinase; format: biochemical; conditions: inhibitor 10 μM; 100 μM ATP
DNA-PK = DNA-PK (Homo sapiens, UniProt P78527); conditions: inhibitor 10 μM; reported by Sadhu et al.; cited from earlier work

Chain of PKC-θ (Q04759 whole entry): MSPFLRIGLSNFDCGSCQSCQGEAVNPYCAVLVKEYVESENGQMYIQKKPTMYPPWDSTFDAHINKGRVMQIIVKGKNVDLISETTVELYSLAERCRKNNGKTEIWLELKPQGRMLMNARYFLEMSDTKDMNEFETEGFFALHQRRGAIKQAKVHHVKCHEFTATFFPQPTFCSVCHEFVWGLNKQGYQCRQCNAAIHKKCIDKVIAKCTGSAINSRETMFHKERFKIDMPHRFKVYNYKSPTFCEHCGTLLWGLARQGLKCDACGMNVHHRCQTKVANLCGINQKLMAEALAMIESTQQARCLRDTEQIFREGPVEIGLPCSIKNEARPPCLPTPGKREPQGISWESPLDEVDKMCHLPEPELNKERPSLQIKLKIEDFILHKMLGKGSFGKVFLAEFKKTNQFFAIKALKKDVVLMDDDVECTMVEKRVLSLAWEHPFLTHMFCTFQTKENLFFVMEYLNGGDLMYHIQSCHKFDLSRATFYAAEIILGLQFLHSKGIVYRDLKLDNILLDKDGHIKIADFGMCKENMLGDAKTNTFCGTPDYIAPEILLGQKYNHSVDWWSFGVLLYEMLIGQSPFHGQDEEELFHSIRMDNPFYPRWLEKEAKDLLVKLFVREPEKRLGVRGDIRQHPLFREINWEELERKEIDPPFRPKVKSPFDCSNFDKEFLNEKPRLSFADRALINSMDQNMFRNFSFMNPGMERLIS
Chain of CD45 tyrosine phosphatase (P08575 26-1306): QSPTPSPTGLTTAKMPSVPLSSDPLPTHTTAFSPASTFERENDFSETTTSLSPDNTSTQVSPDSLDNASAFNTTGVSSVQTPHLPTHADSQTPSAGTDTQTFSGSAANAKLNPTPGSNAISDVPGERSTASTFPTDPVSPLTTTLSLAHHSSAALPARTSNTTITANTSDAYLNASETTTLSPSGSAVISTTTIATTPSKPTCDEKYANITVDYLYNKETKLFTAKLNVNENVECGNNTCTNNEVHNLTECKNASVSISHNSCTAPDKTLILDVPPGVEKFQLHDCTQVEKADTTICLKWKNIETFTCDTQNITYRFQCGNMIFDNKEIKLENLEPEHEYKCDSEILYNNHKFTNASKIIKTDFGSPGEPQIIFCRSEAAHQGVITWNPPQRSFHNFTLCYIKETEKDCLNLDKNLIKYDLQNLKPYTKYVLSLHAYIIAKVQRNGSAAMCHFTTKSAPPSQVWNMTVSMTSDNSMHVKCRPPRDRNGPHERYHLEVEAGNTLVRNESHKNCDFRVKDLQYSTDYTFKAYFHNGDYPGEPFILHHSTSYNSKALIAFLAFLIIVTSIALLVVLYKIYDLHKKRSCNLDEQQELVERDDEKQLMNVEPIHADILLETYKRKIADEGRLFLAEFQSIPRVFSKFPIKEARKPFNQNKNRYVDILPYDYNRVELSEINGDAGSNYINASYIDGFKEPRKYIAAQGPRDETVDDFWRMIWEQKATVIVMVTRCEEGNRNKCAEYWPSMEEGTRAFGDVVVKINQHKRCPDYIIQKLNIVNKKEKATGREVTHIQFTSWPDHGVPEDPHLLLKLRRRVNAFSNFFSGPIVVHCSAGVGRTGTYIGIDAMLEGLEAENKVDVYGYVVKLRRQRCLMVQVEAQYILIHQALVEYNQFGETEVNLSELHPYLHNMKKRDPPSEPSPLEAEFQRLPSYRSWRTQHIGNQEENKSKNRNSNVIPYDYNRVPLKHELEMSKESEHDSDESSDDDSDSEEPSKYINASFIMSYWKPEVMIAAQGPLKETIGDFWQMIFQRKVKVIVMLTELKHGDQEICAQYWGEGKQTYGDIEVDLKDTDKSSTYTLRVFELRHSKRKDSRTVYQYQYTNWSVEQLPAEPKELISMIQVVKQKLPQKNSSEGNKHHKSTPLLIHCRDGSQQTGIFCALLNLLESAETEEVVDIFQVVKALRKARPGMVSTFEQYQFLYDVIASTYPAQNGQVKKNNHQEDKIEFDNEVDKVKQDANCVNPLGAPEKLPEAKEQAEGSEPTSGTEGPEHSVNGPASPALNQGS
Chain of CHK1 (O14757 whole entry, species assumed): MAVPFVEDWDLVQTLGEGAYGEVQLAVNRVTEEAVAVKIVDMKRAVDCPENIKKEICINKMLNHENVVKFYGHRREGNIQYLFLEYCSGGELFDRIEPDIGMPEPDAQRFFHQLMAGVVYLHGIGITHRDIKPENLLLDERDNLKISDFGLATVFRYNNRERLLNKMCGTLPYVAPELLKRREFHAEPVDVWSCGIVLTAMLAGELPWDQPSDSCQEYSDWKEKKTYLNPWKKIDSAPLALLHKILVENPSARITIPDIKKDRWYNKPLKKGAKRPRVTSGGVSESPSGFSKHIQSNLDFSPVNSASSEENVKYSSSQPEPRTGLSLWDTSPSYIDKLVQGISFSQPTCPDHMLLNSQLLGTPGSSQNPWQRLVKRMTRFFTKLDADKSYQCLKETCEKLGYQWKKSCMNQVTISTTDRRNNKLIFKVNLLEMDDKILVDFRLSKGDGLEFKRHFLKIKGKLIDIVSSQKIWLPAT
Chain of ZAP-70 (P43403 whole entry, species assumed): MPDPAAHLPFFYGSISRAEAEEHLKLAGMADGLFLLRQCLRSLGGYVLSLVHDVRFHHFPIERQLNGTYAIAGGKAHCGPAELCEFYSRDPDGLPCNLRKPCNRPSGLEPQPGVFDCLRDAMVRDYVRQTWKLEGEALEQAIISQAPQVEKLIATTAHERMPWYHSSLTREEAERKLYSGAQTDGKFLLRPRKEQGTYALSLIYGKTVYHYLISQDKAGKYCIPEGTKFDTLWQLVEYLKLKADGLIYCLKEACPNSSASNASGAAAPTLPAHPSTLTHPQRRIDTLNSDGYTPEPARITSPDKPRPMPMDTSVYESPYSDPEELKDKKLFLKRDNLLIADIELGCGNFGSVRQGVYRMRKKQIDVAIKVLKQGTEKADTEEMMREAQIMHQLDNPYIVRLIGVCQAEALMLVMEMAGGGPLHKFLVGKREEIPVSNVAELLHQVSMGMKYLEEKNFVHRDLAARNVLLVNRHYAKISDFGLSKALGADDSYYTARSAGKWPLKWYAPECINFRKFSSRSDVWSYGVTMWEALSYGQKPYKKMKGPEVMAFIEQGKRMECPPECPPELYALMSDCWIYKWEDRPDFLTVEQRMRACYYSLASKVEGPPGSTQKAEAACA
Chain of EGF receptor tyrosine kinase (P00533 25-1210): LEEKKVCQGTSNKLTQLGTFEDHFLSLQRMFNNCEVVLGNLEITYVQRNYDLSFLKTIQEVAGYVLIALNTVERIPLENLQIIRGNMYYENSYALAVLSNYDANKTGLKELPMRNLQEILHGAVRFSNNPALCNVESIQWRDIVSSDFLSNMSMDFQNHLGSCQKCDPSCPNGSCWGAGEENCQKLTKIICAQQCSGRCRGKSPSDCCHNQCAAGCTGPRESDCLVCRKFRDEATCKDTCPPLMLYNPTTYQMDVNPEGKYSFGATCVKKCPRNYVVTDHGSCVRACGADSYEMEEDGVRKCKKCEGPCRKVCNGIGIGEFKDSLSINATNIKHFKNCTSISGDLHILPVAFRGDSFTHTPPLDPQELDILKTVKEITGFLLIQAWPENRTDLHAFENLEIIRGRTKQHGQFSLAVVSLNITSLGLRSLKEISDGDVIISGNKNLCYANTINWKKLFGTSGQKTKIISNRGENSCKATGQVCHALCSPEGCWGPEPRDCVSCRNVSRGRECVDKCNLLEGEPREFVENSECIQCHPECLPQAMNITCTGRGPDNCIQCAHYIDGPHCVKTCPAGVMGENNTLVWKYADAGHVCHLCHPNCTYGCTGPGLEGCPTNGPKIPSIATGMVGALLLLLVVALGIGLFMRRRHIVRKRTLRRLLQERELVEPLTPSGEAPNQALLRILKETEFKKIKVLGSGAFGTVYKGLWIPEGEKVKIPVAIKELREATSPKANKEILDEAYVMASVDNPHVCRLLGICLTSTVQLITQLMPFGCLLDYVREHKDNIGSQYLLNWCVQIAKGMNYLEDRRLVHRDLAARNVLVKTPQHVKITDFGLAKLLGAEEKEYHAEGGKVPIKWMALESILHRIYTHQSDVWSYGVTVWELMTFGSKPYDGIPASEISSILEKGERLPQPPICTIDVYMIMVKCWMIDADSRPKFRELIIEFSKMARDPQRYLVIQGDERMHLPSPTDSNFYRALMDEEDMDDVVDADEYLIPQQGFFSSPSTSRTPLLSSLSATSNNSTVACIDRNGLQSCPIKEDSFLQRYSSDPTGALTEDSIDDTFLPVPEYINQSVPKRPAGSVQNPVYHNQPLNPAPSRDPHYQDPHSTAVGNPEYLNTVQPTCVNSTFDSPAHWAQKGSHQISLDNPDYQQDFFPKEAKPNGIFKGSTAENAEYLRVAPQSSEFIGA
Chain of p38 MAPK (Q16539 whole entry): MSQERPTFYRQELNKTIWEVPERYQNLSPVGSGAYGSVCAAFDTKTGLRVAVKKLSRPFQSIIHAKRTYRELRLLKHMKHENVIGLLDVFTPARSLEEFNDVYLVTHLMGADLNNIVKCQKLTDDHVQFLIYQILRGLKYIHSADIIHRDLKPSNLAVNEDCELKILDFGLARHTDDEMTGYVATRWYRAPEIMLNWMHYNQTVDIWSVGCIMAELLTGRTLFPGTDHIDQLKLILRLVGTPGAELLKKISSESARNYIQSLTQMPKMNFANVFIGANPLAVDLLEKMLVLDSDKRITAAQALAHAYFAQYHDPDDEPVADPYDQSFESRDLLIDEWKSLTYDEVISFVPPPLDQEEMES

Question: With Cc1ccccc1-n1c(Cn2cnc3c(N)ncnc32)nc2cccc(C)c2c1=O as the compound, how does the “reduction in the accumulation of neutrophils in BAL fluid” value ([1]; 20 mg per kg oral) read?
Answer: approximately 60%

Question: And the “reduction in the accumulation of neutrophils in BAL fluid” value ([1]; 40 mg per kg oral)?
Answer: ~80%

Question: And the “TNFα in BAL fluid” value ([1]; LPS-treated mice that received inhibitor)?
Answer: still detectable

Question: What about the “phosphorylation of Akt (TNFα-mediated signaling)” value [2] of the same compound?
Answer: reduction in phosphorylation of Akt

Question: What about the “mean rolling velocities of neutrophils on TNFα-inflamed venules” value ([3]; GFP+/− animals) of the same compound?
Answer: 40.5±12.5 μm/s

Question: And the “LTB4-induced migration of neutrophils across inflamed microvessels” value ([3]; LTB4 superfusion of cremaster muscle)?
Answer: diminished

Question: What about the “integrin-mediated firm adhesion of rolling leukocytes in vivo” value ([3]; inflamed cremaster muscle superfused with LTB4) of the same compound?
Answer: rapidly transitioned from rolling to firm adhesion

Question: And the “time the majority of neutrophils rolled before releasing from the vessel wall” value ([3]; inhibitor-treated GFP+/− animals)?
Answer: < 2 s

Question: And the “interactions between circulating granulocytes and venular endothelium” value ([3]; oral, one hour prior to intrascrotal TNFα, GFP+/− animals, vs vehicle)?
Answer: significantly impaired

Question: What about the “decrease in the number of fluorescent cells that attach and roll” value ([3]; vs vehicle treated mice) of the same compound?
Answer: > 50%

Question: What about the “Activity (% of control) ± SD” value (CDK2/cyclinA) of the same compound?
Answer: 92.5 ± 2.12 % of control

Question: What about the “Activity (% of control) ± SD” value (p38 MAPK) of the same compound?
Answer: No inhibition*

Question: And the “kinase activity of PDK1 in response to TNFα” value (PDK1)?
Answer: reduced the kinase activity

Question: What about the “Activity (% of control) ± SD” value (CHK1) of the same compound?
Answer: No inhibition*

Question: And the “Activity (% of control) ± SD” value (ZAP-70)?
Answer: 97.5 ± 13.4 % of control

Question: And the “Activity (% of control) ± SD” value [4]?
Answer: 104 ± 2.2 % of control

Question: What about the “number of circulating neutrophils” value [5] of the same compound?
Answer: 2,730.7±1132.6

Question: What about the “Activity (% of control) ± SD” value (PKC-θ) of the same compound?
Answer: 97 ± 5.5 % of control

Question: And the “Activity (% of control) ± SD” value [6]?
Answer: 102 ± 5.5 % of control

Question: And the “Activity (% of control) ± SD” value (DNA-PK)?
Answer: No inhibition*

— US20080287469A1, “Phosphoinositide 3-Kinase Inhibitors for Inhibiting Leukocyte Accumulation” (priority 2005, published 2008)
